Assay [1] addresses T1, KLK5 (Homo sapiens, UniProt Q9Y337).
T1 sequence (Q9Y337 23-293): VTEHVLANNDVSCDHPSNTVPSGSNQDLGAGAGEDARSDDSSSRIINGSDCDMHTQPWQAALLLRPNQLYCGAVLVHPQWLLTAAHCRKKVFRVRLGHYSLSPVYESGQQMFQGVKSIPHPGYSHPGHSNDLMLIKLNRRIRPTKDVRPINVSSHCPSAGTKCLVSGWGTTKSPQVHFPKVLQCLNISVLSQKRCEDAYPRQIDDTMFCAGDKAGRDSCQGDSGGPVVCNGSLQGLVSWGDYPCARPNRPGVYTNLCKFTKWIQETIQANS
The assay is described as follows: Inhibition of KLK5 by organic compounds (dose response). The assay is classed as biochemical. The method, then:
FIGS. 14A-14B show the effect of organic compounds on KLK5 activity. FIG. 14A is a dose response curve for 3-(3-chlorophenyl) carboxy-7-hydroxymethyl coumarin. FIG. 14B is a dose response curve for 3-carboxy-7-hydroxymethyl coumarin.
Two organic compounds were tested for their inhibition of KLK5.

In assay [2] the test system is serine proteinases with trypsin-like activity. Nature of the assay: Trypsin-like / proteolytic activity in supernatants of SPINK7-depleted EPC2 cells. The assay is classed as cell-based, human. The note with it: following ALI differentiation. As to the method: (§1) FIG. 10A is a bar graph showing quantification of uPA activity in supernatants derived from (NSC) or SPINK7-depleted EPC2 cells following during ALI differentiation (day 7-9). FIG. 10B is a bar graph showing quantification of the activity of serine proteinases with trypsin-like activity in supernatants derived from (NSC) or SPINK7-depleted EPC2 cells and primary esophageal cells following ALI differentiation. Proteinase activity in the supernatants is calculated as nM concentrations according to standard dilutions of recombinant hKLK5. In vitro activity assays of KLK5 (FIG. 10C) KLK7 (FIG. 10D) and KLK11 (FIG. 10E) in the presence of the indicated concentrations of SPINK7. Data are represented as the mean±s.e.m.
FIG. 12A is a bar graph showing FPKM values of uPA in the esophagus of EoE patients and controls. FIG. 12B is a bar graph showing analysis of the uPA proteolytic activity (active units—AU) in esophageal biopsies from 6 normal and 6 EoE patients. […] FIG. 12D is a bar graph showing quantification of trypsin-like activity in supernatants derived from NSC or SPINK7-depleted EPC2 cells that were treated with A1AT or a vehicle following ALI differentiation. […]
The known SPINK7 target uPA (Cheng, X., Lu, S. H. & Cui, Y. Cancer letters 290, 87-95 (2010), and Huang, G. et al. Carcinogenesis 28, 2274-2281(2007)) was analyzed. […]

Assay [3] relates to SPINK7-depleted EPC2 cells. Nature of the assay: Barrier function (electrical resistance) of SPINK7-depleted EPC2 cells during ALI differentiation. Type of assay: cell-based, human. To be noted: treated with A1AT during ALI differentiation, Day 7. The method, then:
(§2) FIG. 12A is a bar graph showing FPKM values of uPA in the esophagus of EoE patients and controls. FIG. 12B is a bar graph showing analysis of the uPA proteolytic activity (active units—AU) in esophageal biopsies from 6 normal and 6 EoE patients. […] FIG. 12D is a bar graph showing quantification of trypsin-like activity in supernatants derived from NSC or SPINK7-depleted EPC2 cells that were treated with A1AT or a vehicle following ALI differentiation. FIG. 12E are electrical resistance measurements of NSC or SPINK7-depleted EPC2 cells that were treated with A1AT or a vehicle during ALI differentiation (Day 7). FIG. 12F are H&E staining images of NSC or SPINK7-depleted EPC2 cells that were treated with A1AT or a vehicle after ALI differentiation (Day 14)-add. FIG. 12G are images of co-immunofluorescence staining of E-cadherin and Filaggrin of NSC or SPINK7-depleted EPC2 cells that were treated with A1AT or a vehicle following ALI differentiation.
Paracellular and transcellular permeability of the ALI cultured cells were analyzed. […] Transepithelial electrical resistance (A) was measured from NSC and SPINK7-depleted EPC2 cells measured at day 7 and 8 during ALI differentiation (data not shown; data were representative of four experiments performed in triplicate and are represented as the mean±Sd). […]

Assay [4] concerns SPINK7-depleted EPC2 cells. Nature of the assay: H&E staining of SPINK7-depleted EPC2 cells after ALI differentiation (epithelial integrity). The assay is classed as cell-based, human. The note with it: ALI differentiation Day 14. As to the method: as §2
(§3) To extend the potential benefit of A1AT, its ability to restore the epithelial changes induced by SPINK7 loss was […]. […] Consistent with these findings, A1AT administration increased filaggrin expression (FIG. 12G)

A further assay concerns Filaggrin. The assay is described as follows: Co-immunofluorescence staining of filaggrin in SPINK7-depleted EPC2 cells. Type of assay: cell-based, human. To be noted: following ALI differentiation. As to the method:
as §2, §3

Assay [5] concerns the target T1, KLK5. Nature of the assay: In vitro KLK5 activity assay in the presence of SPINK7. The assay is classed as biochemical. As to the method: as §1
The target in another assay is KLK7 (Homo sapiens, UniProt P49862). The assay is described as follows: In vitro KLK7 activity assay in the presence of SPINK7. Type of assay: biochemical. The method, then:
as §1

A further assay has as its target T2, KLK11 (Homo sapiens, UniProt Q9UBX7).
T2 sequence (Q9UBX7 54-282): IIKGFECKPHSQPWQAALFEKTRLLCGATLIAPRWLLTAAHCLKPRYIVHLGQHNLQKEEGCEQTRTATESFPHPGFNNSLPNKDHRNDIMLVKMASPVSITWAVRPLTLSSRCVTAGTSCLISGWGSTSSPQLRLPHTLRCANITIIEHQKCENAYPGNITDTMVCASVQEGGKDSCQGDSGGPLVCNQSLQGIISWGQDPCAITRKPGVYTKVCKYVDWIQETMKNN
The assay is described as follows: In vitro KLK11 activity assay in the presence of SPINK7. Type of assay: biochemical. As to the method: as §1

In a further assay the target is uPA (Homo sapiens, UniProt P00749). The assay is described as follows: uPA proteolytic activity inhibition by SPINK7. Type of assay: biochemical. The note with it: data not shown. As to the method:
The known SPINK7 target uPA (Cheng, X., Lu, S. H. & Cui, Y. Cancer letters 290, 87-95 (2010), and Huang, G. et al. Carcinogenesis 28, 2274-2281(2007)) was analyzed. […] An increased proteolytic activity using the broad trypsin-like activity substrate Val-Pro-Arg (FIG. 10B) was observed.

These results are taken from patent publication US12171740B2, “Compositions and methods for treating allergic inflammatory conditions” (CHILDREN'S HOSPITAL MEDICAL CENTER, priority 2016, dated 2024).

Entries after “also recorded” stand apart in the source; their conditions may differ.

KLK7, sequence (P49862 30-253): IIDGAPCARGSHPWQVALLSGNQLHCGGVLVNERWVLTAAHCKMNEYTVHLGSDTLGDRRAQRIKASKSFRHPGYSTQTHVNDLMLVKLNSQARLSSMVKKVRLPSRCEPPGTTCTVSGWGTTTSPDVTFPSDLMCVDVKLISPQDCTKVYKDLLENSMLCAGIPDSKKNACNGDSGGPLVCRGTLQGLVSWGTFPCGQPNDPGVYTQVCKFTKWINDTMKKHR

For orientation: IC50 means the concentration that inhibits the measured activity by half. Higher therefore signals lower potency. As to `O=C(O)c1cc2ccc(CO)cc2oc1=O` [Compound II, 3-carboxy-7-hydroxymethyl coumarin], at KLK5 [1], the midpoint of inhibition, the IC50, lay at 0.083 ± 0.008 µM and the “type of KLK5 inhibition (reversibility)” value is “non reversible inhibitors”.
Take “A1AT: serine proteinase inhibitor alpha-1 anti-trypsin, administered to SPINK7-silenced cells [Compound A1AT]”: in [2], the “trypsin-like activity of supernatant of SPINK7 silenced cells” value is given as “inhibited”. In addition, the “barrier function (electrical resistance)” value in [3] is reported as “dose-dependent ability to improve barrier function”. Further, the “epithelial integrity (inter-cellular spaces)” value in assay [4] was “decreased inter-cellular spaces”. Also, in the assay on Filaggrin, the filaggrin expression result is listed as “increased”.
On to “3-(3-chlorophenyl) carboxy-7-hydroxymethyl coumarin [Compound I]”, for which, on KLK5 [1], it took 52 ± 12 µM to reach half-maximal inhibition (IC50) and the “type of KLK5 inhibition (reversibility)” value is given as “non reversible inhibitors”.

B1: SPINK7: serine proteinase inhibitor kazal-type 7 protein, tested in vitro against KLK5, KLK7, KLK11 and uPA (protein, UniProt P58062 20-85, looked up)
Serine protease inhibitor …: SEAASLSPKKVDCSIYKKYPVVAIPCPITYLPVCGSDYITYGNECHLCTESLKSNGRVQFLHDGSC
Usually Ki stands for the equilibrium dissociation constant of an inhibitor or competing ligand from its target. Consider B1, for which, in the assay with KLK5 [5] (in vitro), the “inhibition of KLK5 proteolytic activity” value is “inhibited”. In addition, the Ki with KLK5 [5] (mean±SD, dose-dependent, read-out: Ki, inhibition of KLK5 proteolytic activity) stood at 0.132 ± 0.108 µM. In addition, the “inhibition of KLK7” value with KLK7 is “did not inhibit; also recorded: not KLK7”. Also, in the assay with KLK11, the “inhibition of KLK11” value is reported as “did not inhibit”. For the same molecule, the “inhibition of uPA proteolytic activity” value with uPA is “directly inhibited”.
